Laboratory results as given in US11667602B2, “Compounds and their use” (AstraZeneca AB, priority 2020, dated 2023).
≈ marks a conversion by molar mass, not a printed value.

Assays:
human RXFP1 = target: T1, human RXFP1 (Homo sapiens, UniProt Q9HBX9); experiment: RXFP1 Hu cAMP (Test A); format: cell-based; parameters: expressed in transfected cells; host or cells: Jump-In T-REx CHO-K1 cells (ThermoFisher), induced with 10 ng/ml doxycycline for 24 h; conditions: RXFP1 Hu cAMP; for EC50: read-out: Test A EC50
T1 sequence (Q9HBX9 1-757): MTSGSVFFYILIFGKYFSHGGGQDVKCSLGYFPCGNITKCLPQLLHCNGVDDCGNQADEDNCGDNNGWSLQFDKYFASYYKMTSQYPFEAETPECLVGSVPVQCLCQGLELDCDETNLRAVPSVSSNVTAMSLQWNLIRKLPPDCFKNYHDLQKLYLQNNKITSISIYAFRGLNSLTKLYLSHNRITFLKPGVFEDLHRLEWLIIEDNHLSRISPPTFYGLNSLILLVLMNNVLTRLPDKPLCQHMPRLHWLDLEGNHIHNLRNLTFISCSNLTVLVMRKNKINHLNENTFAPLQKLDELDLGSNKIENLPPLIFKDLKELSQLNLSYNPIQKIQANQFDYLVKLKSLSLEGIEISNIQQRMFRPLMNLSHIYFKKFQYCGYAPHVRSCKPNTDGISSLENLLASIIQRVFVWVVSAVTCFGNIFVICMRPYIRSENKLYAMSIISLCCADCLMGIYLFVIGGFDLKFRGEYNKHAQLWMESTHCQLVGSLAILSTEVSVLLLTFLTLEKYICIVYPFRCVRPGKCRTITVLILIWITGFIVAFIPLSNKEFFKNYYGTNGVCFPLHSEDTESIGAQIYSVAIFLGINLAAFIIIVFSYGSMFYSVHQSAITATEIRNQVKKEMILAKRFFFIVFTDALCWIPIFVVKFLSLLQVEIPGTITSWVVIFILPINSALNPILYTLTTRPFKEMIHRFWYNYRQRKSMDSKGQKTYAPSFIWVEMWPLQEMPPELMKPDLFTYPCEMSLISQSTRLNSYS
How it was run: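 Cells: CHO-K1 stably carrying human RXFP1, expressed after 24 h 10 ng/ml doxycycline; 0.5 mM IBMX final, HTRF detection after 2 h at room temperature.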

[1] = Human Plasma Protein Binding (Test B); format: in vitro ADME; conditions: fraction unbound (fu)
How it was run: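 Values given as % free (fu) in human plasma, using the method of Wernevik et al. (2020). For compounds tested more than once, the arithmetic mean is given.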

[2] = Human Liver Microsomal Stability (Test C); format: in vitro ADME; conditions: human, liver microsomes
How it was run: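 CLint (μl/min/mg protein) derived from compound depletion in human liver microsomes following a published standardized early-DMPK protocol; replicate determinations given as arithmetic mean.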

[3] = Rat Hepatocyte Stability (Test E); format: in vitro ADME; conditions: rat, hepatocytes, geometric mean if run multiple times
How it was run: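 Intrinsic clearance in rat hepatocytes, expressed as μl/min/10^6 cells, following the literature integrated DMPK panel method. Repeat determinations combined as geometric mean.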

Solubility (Test F) = format: physicochemical; conditions: arithmetic mean if run multiple times
Protocol: The assay was conducted according to the Solubility Assay described in pages 164-167 of Wernevik, J. et al., “A Fully Integrated Assay Panel for Early Drug Metabolism and Pharmacokinetics Profiling”, Assay and Drug Development Technologies, 2020, 18(4), 157-179. Data are reported in Table 36 as solubility ([…]. Where the assay was run multiple times for the same compound, the arithmetic mean is reported.

SMILES | Test A Sinf (human RXFP1) | EC50 (human RXFP1) | Test B Human Plasma Protein Binding (% free) [1] | microsomal CLint [2] | hepatocyte CLint [3] | solubility (Solubility (Test F))
COc1cc(C#N)c(O[C@H]2CC[C@@](C)(C(=O)O)CC2)cc1C(=O)N[C@@H]1[C@H]2CC[C@H](C2)[C@@H]1C(=O)NCC1(F)CCCC1 [Example 92] | 122% | 140 nM | 12 % free | 8.4 µL/min/mg | 32 µL/min/1e6 cells | 920 µM (≈ 524 µg/mL)
COc1cc(C#N)c(O[C@H]2CC[C@@](C)(C(=O)O)CC2)cc1C(=O)N[C@@H]1[C@H]2CC[C@H](C2)[C@@H]1C(=O)NCC1(C#N)CCC1 [Example 93] | 103% | 370 nM | 24 % free | < 3 µL/min/mg | 16 µL/min/1e6 cells | 920 µM (≈ 518 µg/mL)
COc1cc(C#N)c(O[C@H]2CC[C@@](C)(C(=O)O)CC2)cc1C(=O)N[C@@H]1[C@H]2CC[C@H](C2)[C@@H]1C(=O)NCC1(F)CCC1 [Example 94] | 111% | > 710 nM | 14 % free | 9 µL/min/mg | 32 µL/min/1e6 cells | 830 µM (≈ 461 µg/mL)
COc1cc(C#N)c(O[C@H]2CC[C@@](C)(C(=O)O)CC2)cc1C(=O)N[C@@H]1[C@H]2CC[C@H](C2)[C@@H]1C(=O)NCC1(CF)CC1 [Example 95] | 123% | 480 nM | 18 % free | 4.4 µL/min/mg | 21 µL/min/1e6 cells | 880 µM (≈ 489 µg/mL)
COc1cc(C#N)c(O[C@H]2CC[C@@](C)(C(=O)O)CC2)cc1C(=O)N[C@@H]1[C@H]2CC[C@H](C2)[C@@H]1C(=O)NCC(C)(F)F [Example 96] | 97% | 440 nM | 26 % free | < 3 µL/min/mg | 24 µL/min/1e6 cells | 890 µM (≈ 487 µg/mL)
COc1cc(C#N)c(O[C@H]2CC[C@@](C)(C(=O)O)CC2)cc1C(=O)N[C@@H]1[C@H]2CC[C@H](C2)[C@@H]1C(=O)NC1(C)CC1 [Example 100] | 100% | > 4600 nM | 30 % free | < 3 µL/min/mg | 9.6 µL/min/1e6 cells | 920 µM (≈ 482 µg/mL)
COc1cc(C#N)c(O[C@H]2CC[C@@](C)(C(=O)O)CC2)cc1C(=O)N[C@@H]1[C@H]2CC[C@H](C2)[C@@H]1C(=O)NCC1(O)CCC(F)(F)CC1 [Example 101] | 100% | > 3500 nM | 20 % free | < 3 µL/min/mg | 28 µL/min/1e6 cells | 990 µM (≈ 612 µg/mL)
COc1cc(C#N)c(O[C@H]2CC[C@@](C)(C(=O)O)CC2)cc1C(=O)N[C@@H]1[C@H]2CC[C@H](C2)[C@@H]1C(=O)NCC1(O)CCCCCC1 [Example 103] | – | > 5000 nM | 10 % free | 11 µL/min/mg | 38 µL/min/1e6 cells | 860 µM (≈ 512 µg/mL)
CCOCC1(CNC(=O)[C@H]2[C@@H]3CC[C@@H](C3)[C@H]2NC(=O)c2cc(O[C@H]3CC[C@@](C)(C(=O)O)CC3)c(C#N)cc2OC)CCC1 [Example 104] | 122% | 270 nM | 6.4 % free | 59 µL/min/mg | 28 µL/min/1e6 cells | 920 µM (≈ 548 µg/mL)
COc1cc(C#N)c(O[C@H]2CC[C@@](C)(C(=O)O)CC2)cc1C(=O)N[C@@H]1[C@H]2CC[C@H](C2)[C@@H]1C(=O)NCC1(C)CCCCCC1 [Example 105] | 125% | 4.8 nM | 2.5 % free | > 300 µL/min/mg | 48 µL/min/1e6 cells | 220 µM (≈ 131 µg/mL)
COc1cc(C#N)c(O[C@H]2CC[C@@](C)(C(=O)O)CC2)cc1C(=O)N[C@@H]1[C@H]2CC[C@H](C2)[C@@H]1C(=O)NCC1(CC(C)C)CCC1 [Example 106] | 112% | 9.7 nM | 1.7 % free | > 300 µL/min/mg | 29 µL/min/1e6 cells | 170 µM (≈ 101 µg/mL)
COc1cc(C#N)c(O[C@H]2CC[C@@](C)(C(=O)O)CC2)cc1C(=O)N[C@@H]1[C@H]2CC[C@H](C2)[C@@H]1C(=O)NCC1CCC(C#N)CC1 (some centres unmarked) [Example 107] | 112% | 8300 nM | 26 % free | 7.9 µL/min/mg | 34 µL/min/1e6 cells | 1000 µM (≈ 591 µg/mL)
COc1cc(C#N)c(O[C@H]2CC[C@@](C)(C(=O)O)CC2)cc1C(=O)N[C@@H]1[C@H]2CC[C@H](C2)[C@@H]1C(=O)NCC1(CO)CCCC1 [Example 109] | 103% | 250 nM | 17 % free | 11 µL/min/mg | 26 µL/min/1e6 cells | 810 µM (≈ 471 µg/mL)
COc1cc(C#N)c(O[C@H]2CC[C@@](C)(C(=O)O)CC2)cc1C(=O)N[C@@H]1[C@H]2CC[C@H](C2)[C@@H]1C(=O)NCC1(F)CCOCC1 [Example 110] | 102% | 740 nM | 44 % free | < 3 µL/min/mg | 19 µL/min/1e6 cells | 950 µM (≈ 556 µg/mL)
COc1cc(C#N)c(O[C@H]2CC[C@@](C)(C(=O)O)CC2)cc1C(=O)N[C@@H]1[C@H]2CC[C@H](C2)[C@@H]1C(=O)NCC1(OC)CC1 [Example 111] | 100% | 680 nM | 31 % free | < 3 µL/min/mg | 18 µL/min/1e6 cells | 860 µM (≈ 476 µg/mL)
COc1cc(C#N)c(O[C@H]2CC[C@@](C)(C(=O)O)CC2)cc1C(=O)N[C@@H]1[C@H]2CC[C@H](C2)[C@@H]1C(=O)NC1(C2CC2)CC1 [Example 112] | 95% | 470 nM | 16 % free | 6.8 µL/min/mg | 17 µL/min/1e6 cells | 830 µM (≈ 456 µg/mL)
